Experiments:
dengue virus type 2 [1] = assay: Antiviral activity against DENV2 New Guinea C strain infected in Huh7 cells after 48 hrs by renilla luciferase assay; format: functional, organism-based, Huh-7; conditions: for EC90: Huh-7, time 48 hrs
[2] = Cytotoxicity against human Huh-7 cells infected with DENV2 by alamar blue assay; format: cell-based
dengue virus type 2 [3] = assay: Potency index, ratio of erlotinib EC50 to compound EC50 for antiviral activity against DENV2 New Guinea C strain infected in Huh7 cells after 48 hrs by renilla luciferase assay; format: functional, Huh-7
[4] = Selectivity index, ratio of CC50 for human Huh7 cells to EC50 for DENV2 New Guinea C; format: toxicity; conditions: read-out: Ratio CC50/EC50
[5] = Dengue virus, New Guinea C, Huh-7, 48 h

## COc1cc(N(C)c2ccnc3ccc(C(F)(F)F)cc23)cc(OC)c1OC
Dengue virus type 2 [1]; [5]
  EC50: 10 µM
[2]
  CC50: > 10 µM

## COc1cc(Nc2ccnc3cc(Cl)ccc23)cc(OC)c1OC
Dengue virus type 2 [1]; [5]
  EC50: > 10 µM
[2]
  CC50: > 10 µM

## COc1cc(Nc2ccnc3ccc(Cl)cc23)cc(OC)c1OC
Dengue virus type 2 [1]; [5]
  EC50: 0.52 µM
[2]
  CC50: > 10 µM

## COc1ccc2c(Nc3cc(OC)c(OC)c(OC)c3)c(C#N)cnc2c1
Dengue virus type 2 [1]; [5]
  EC50: > 10 µM
[2]
  CC50: > 10 µM

## COc1cc(Nc2ccnc3cc(C#N)ccc23)cc(OC)c1OC
Dengue virus type 2 [1]; [5]
  EC50: 3.3 µM
[2]
  CC50: > 10 µM

## COc1cc(Nc2ncnc3ccc(C#N)cc23)cc(OC)c1OC
Dengue virus type 2 [1]; [5]
  EC50: 3.7 µM
[2]
  CC50: > 10 µM

## COc1cc(Nc2ccnc3ccc(Br)cc23)cc(OC)c1OC
Dengue virus type 2 [3]
  Ratio EC50: >80
Dengue virus type 2 [1]; [5]
  EC50: 0.08 µM
Dengue virus type 2 [1]; huh-7
  EC50: 0.122 µM
[2]
  CC50: > 10 µM

## COc1cc(Nc2ccnc3c(C)cccc23)cc(OC)c1OC
Dengue virus type 2 [1]; [5]
  EC50: > 10 µM
[2]
  CC50: > 10 µM

## COc1cc2nccc(Nc3cc(OC)c(OC)c(OC)c3)c2cc1OC
Dengue virus type 2 [1]; [5]
  EC50: > 10 µM
[2]
  CC50: > 10 µM

## COc1cc2ncnc(Nc3cc(OC)c(OC)c(OC)c3)c2cc1OC
Dengue virus type 2 [1]; [5]
  EC50: 6.6 µM
[2]
  CC50: > 10 µM

## COc1cc(Nc2ccnc3ccc(C(F)(F)F)cc23)cc(OC)c1OC
Dengue virus type 2 [1]; [5]
  EC50: 0.59 µM
[2]
  CC50: > 10 µM

## COc1ccc2c(Nc3cc(OC)c(OC)c(OC)c3)ncnc2c1
Dengue virus type 2 [3]
  Ratio EC50: 2
Dengue virus type 2 [1]; [5]
  EC50: 2.7 µM
[2]
  CC50: > 10 µM

## COc1cc(Nc2c(C#N)cnc3ccc(Cl)cc23)cc(OC)c1OC
Dengue virus type 2 [1]; [5]
  EC50: 1.3 µM
[2]
  CC50: > 10 µM

## COc1cc(Nc2ncnc3cc(F)c(F)cc23)cc(OC)c1OC
Dengue virus type 2 [3]
  Ratio EC50: >10
Dengue virus type 2 [1]; [5]
  EC50: > 10 µM
[2]
  CC50: > 10 µM

## COc1cc(Nc2cc(C)nc3ccc(C(F)(F)F)cc23)cc(OC)c1OC
Dengue virus type 2 [1]; [5]
  EC50: 0.91 µM
[2]
  CC50: > 10 µM

## CCN(CC)c1ccc(Oc2ccc(-c3[nH]c4cccc(F)c4c(=O)c3C)cc2F)cc1
Dengue virus type 2 [1]; [5]
  EC50: 0.007 µM

## COc1cc(Nc2c(C#N)cnc3ccc(S(C)(=O)=O)cc23)cc(OC)c1OC
Dengue virus type 2 [1]; [5]
  EC50: > 10 µM
[2]
  CC50: > 10 µM

## COc1cc(Nc2ncnc3ccc(Br)cc23)cc(OC)c1OC
Dengue virus type 2 [1]; [5]
  EC50: 0.97 µM
[2]
  CC50: > 10 µM

## COc1cc(Nc2ncnc3ccc(F)cc23)cc(OC)c1OC
Dengue virus type 2 [1]; [5]
  EC50: > 10 µM
[2]
  CC50: > 10 µM

## COc1cc(Nc2ccnc3ccc(C(C)(C)C)cc23)cc(OC)c1OC
Dengue virus type 2 [1]; [5]
  EC50: 7.4 µM
[2]
  CC50: > 10 µM

## COc1cc(Nc2ncnc3ccc(S(C)(=O)=O)cc23)cc(OC)c1OC
Dengue virus type 2 [1]; [5]
  EC50: > 10 µM
[2]
  CC50: > 10 µM

## CC(C)(C)Oc1cccc2nc(N)nc(N)c12
Dengue virus type 2 [1]; [5]
  EC50: 0.0028 µM

## COc1cc(Nc2cc(C)nc3cc(C(F)(F)F)ccc23)cc(OC)c1OC
Dengue virus type 2 [1]; [5]
  EC50: > 10 µM
[2]
  CC50: > 10 µM

## COc1cc(Nc2c(C#N)cnc3ccc(Br)cc23)cc(OC)c1OC
Dengue virus type 2 [3]
  Ratio EC50: >80
Dengue virus type 2 [1]; [5]
  EC50: 0.082 µM
Dengue virus type 2 [1]; Dengue virus, New Guinea C
  EC90: 0.151 µM
[2]
  CC50: > 10 µM

## COc1cc(Nc2ccnc3ccc(I)cc23)cc(OC)c1OC
Dengue virus type 2 [1]; [5]
  EC50: 0.82 µM
[2]
  CC50: > 10 µM

## COc1cc(Nc2ncnc3ccc(Cl)cc23)cc(OC)c1OC
Dengue virus type 2 [3]
  Ratio EC50: >10
Dengue virus type 2 [1]; [5]
  EC50: 1 µM
[2]
  CC50: > 10 µM

## COc1cc(Nc2ccnc3cc(F)ccc23)cc(OC)c1OC
Dengue virus type 2 [1]; [5]
  EC50: 4.1 µM
[2]
  CC50: > 10 µM

## COc1cc(Nc2ccnc3ccccc23)cc(OC)c1OC
Dengue virus type 2 [1]; [5]
  EC50: 8.2 µM
[2]
  CC50: > 10 µM

## COc1cc(Nc2ncnc3ccc(C(F)(F)F)cc23)cc(OC)c1OC
Dengue virus type 2 [1]; [5]
  EC50: > 10 µM
[2]
  CC50: > 10 µM

## COc1cc(Nc2cc(C)nc3ccccc23)cc(OC)c1OC
Dengue virus type 2 [1]; [5]
  EC50: 8 µM
[2]
  CC50: > 10 µM

## COc1cc(Nc2ccnc3cc(F)c(F)cc23)cc(OC)c1OC
Dengue virus type 2 [1]; [5]
  EC50: 1 µM
[2]
  CC50: 5.5 µM

## COc1ccc2ncc(C#N)c(Nc3cc(OC)c(OC)c(OC)c3)c2c1
Dengue virus type 2 [1]; [5]
  EC50: 3.1 µM
[2]
  CC50: > 10 µM

## COc1cc(Nc2ncnc3ccc(C)cc23)cc(OC)c1OC
Dengue virus type 2 [1]; [5]
  EC50: > 10 µM
[2]
  CC50: > 10 µM

## COc1cc(Nc2c(C#N)cnc3ccccc23)cc(OC)c1OC
Dengue virus type 2 [1]; [5]
  EC50: > 10 µM
[2]
  CC50: > 10 µM

## COc1cc2ncc(C#N)c(Nc3cc(OC)c(OC)c(OC)c3)c2cc1OC
Dengue virus type 2 [1]; [5]
  EC50: 5.5 µM
[2]
  CC50: > 10 µM

## COc1cc(Nc2c(C#N)cnc3cc(Br)ccc23)cc(OC)c1OC
Dengue virus type 2 [1]; [5]
  EC50: > 10 µM
[2]
  CC50: > 10 µM

## COc1cc(Nc2c(C#N)cnc3cc(I)ccc23)cc(OC)c1OC
Dengue virus type 2 [1]; [5]
  EC50: 4.7 µM
[2]
  CC50: > 10 µM

## COc1ccc2nccc(Nc3cc(OC)c(OC)c(OC)c3)c2c1
Dengue virus type 2 [3]
  Ratio EC50: 8
Dengue virus type 2 [1]; [5]
  EC50: 0.75 µM
[2]
  CC50: > 10 µM

## C#Cc1cccc(Nc2ncnc3cc(OCCOC)c(OCCOC)cc23)c1 [ERLOTINIB]
Dengue virus type 2 [1]; [5]
  EC50: 6.5 µM

## COc1cc(Nc2ncnc3cc(C(F)(F)F)ccc23)cc(OC)c1OC
Dengue virus type 2 [1]; [5]
  EC50: 5.1 µM
[2]
  CC50: > 10 µM

## COc1cc(Nc2ccnc3ccc(S(C)(=O)=O)cc23)cc(OC)c1OC
Dengue virus type 2 [1]; [5]
  EC50: 0.84 µM
[2]
  CC50: > 10 µM

## COc1ccc2nc(C)cc(Nc3cc(OC)c(OC)c(OC)c3)c2c1
Dengue virus type 2 [1]; [5]
  EC50: 10 µM
[2]
  CC50: > 10 µM

## COc1ccc2ncnc(Nc3cc(OC)c(OC)c(OC)c3)c2c1
Dengue virus type 2 [1]; [5]
  EC50: > 10 µM
[2]
  CC50: > 10 µM

## COc1cc(Nc2ccnc3ccc(F)cc23)cc(OC)c1OC
Dengue virus type 2 [1]; [5]
  EC50: 5.2 µM
[2]
  CC50: > 10 µM

## COc1ccc2c(Nc3cc(OC)c(OC)c(OC)c3)ccnc2c1
Dengue virus type 2 [1]; [5]
  EC50: > 10 µM
[2]
  CC50: > 10 µM

## COc1cc(Nc2c(C#N)cnc3ccc(I)cc23)cc(OC)c1OC
Dengue virus type 2 [3]
  Ratio EC50: >80
Dengue virus type 2 [1]; [5]
  EC50: 0.079 µM
Dengue virus type 2 [1]; Dengue virus, New Guinea C
  EC90: 0.125 µM
[2]
  CC50: > 10 µM

## COc1cc(Nc2ccnc3cc(I)ccc23)cc(OC)c1OC
Dengue virus type 2 [3]
  Ratio EC50: 2
Dengue virus type 2 [1]; [5]
  EC50: 3.6 µM
[2]
  CC50: > 10 µM

## COc1cc(Nc2ccnc3cc(C(F)(F)F)ccc23)cc(OC)c1OC
Dengue virus type 2 [1]; [5]
  EC50: 6.8 µM
[2]
  CC50: > 10 µM

## COc1cc(Nc2ncnc3cc(Br)ccc23)cc(OC)c1OC
Dengue virus type 2 [1]; [5]
  EC50: 2 µM
[2]
  CC50: > 10 µM

## COc1cc(Nc2ccnc3ccc(C#N)cc23)cc(OC)c1OC
Dengue virus type 2 [1]; [5]
  EC50: 0.76 µM
[2]
  CC50: > 10 µM

## COc1cc(Nc2cc(C)nc3ccc(F)cc23)cc(OC)c1OC
Dengue virus type 2 [1]; [5]
  EC50: 2.3 µM
[2]
  CC50: > 10 µM

## COc1cc(Nc2ncnc3cc(F)ccc23)cc(OC)c1OC
Dengue virus type 2 [1]; [5]
  EC50: > 10 µM
[2]
  CC50: > 10 µM

## COc1cc(Nc2c(C#N)cnc3cc(Cl)ccc23)cc(OC)c1OC
Dengue virus type 2 [1]; [5]
  EC50: > 10 µM
[2]
  CC50: > 10 µM

## COc1ccc(-c2cnc3[nH]cc(C#Cc4cccnc4)c3c2)cc1OC
Dengue virus type 2 [1]; [5]
  EC50: 0.72 µM

## COc1ccc2c(Nc3cc(OC)c(OC)c(OC)c3)cc(C)nc2c1
Dengue virus type 2 [1]; [5]
  EC50: > 10 µM
[2]
  CC50: > 10 µM

## Clc1ccc(-c2ccc(-c3nc(NCc4cccnc4)nc4ccccc34)s2)cc1
Dengue virus type 2 [1]; [5]
  EC50: 0.07 µM

## COc1cc(Nc2ncnc3cc(I)ccc23)cc(OC)c1OC
Dengue virus type 2 [1]; [5]
  EC50: 2.9 µM
[2]
  CC50: 5.8 µM

## COc1cc(-c2cnc3c(N4C[C@@H](C)O[C@@H](C)C4)snc3c2)ccc1N
Dengue virus type 2 [1]; [5]
  EC50: 0.87 µM

## COc1cc(Nc2ncnc3ccccc23)cc(OC)c1OC
Dengue virus type 2 [3]
  Ratio EC50: 2
Dengue virus type 2 [1]; [5]
  EC50: 2.8 µM
[2]
  CC50: > 10 µM

## COc1cc(Nc2ncnc3cc(Cl)ccc23)cc(OC)c1OC
Dengue virus type 2 [1]; [5]
  EC50: 6.1 µM
[2]
  CC50: > 10 µM

## COc1cc2nc(C)cc(Nc3cc(OC)c(OC)c(OC)c3)c2cc1OC
Dengue virus type 2 [1]; [5]
  EC50: 10 µM
[2]
  CC50: > 10 µM

## COc1cc(Nc2cc(C)nc3ccc(Br)cc23)cc(OC)c1OC
Dengue virus type 2 [3]
  Ratio EC50: >20
Dengue virus type 2 [1]; [5]
  EC50: 0.28 µM
Dengue virus type 2 [1]; Dengue virus, New Guinea C
  EC90: 0.53 µM
[2]
  CC50: 2.5 µM
[4]
  selectivity ratio: 10

## COc1cc(Nc2ncnc3cc(C#N)ccc23)cc(OC)c1OC
Dengue virus type 2 [1]; [5]
  EC50: 1.4 µM
[2]
  CC50: > 10 µM

## COc1cc(Nc2ncnc3ccc(I)cc23)cc(OC)c1OC
Dengue virus type 2 [1]; [5]
  EC50: 1 µM
[2]
  CC50: > 10 µM

## COc1cc(Nc2ccnc3cc(Br)ccc23)cc(OC)c1OC
Dengue virus type 2 [1]; [5]
  EC50: 8.4 µM
[2]
  CC50: > 10 µM
